Results on 18 molecules are retold here after patent US12404289B2 (Gilead Sciences, Inc., priority 2020, dated 2025).

pEC50: −log10 of the molar value. Like-named read-outs stand apart in the source and are kept apart here.

Common to all, as to assay type: cell-based
For data set [1], the system named is Respiratory syncytial virus (RSV) strain A2. Put plainly: RSV antiviral assay (HEp-2, 96 well). Conditions: human respiratory syncytial virus.
A further data set deals with SARS-CoV-2. Briefly: SARS-CoV-2 antiviral assay (A549-hACE2, Nano luciferase). The note with it: Severe acute respiratory syndrome coronavirus 2, 48 h, A549-hACE2 cells, SARS-CoV2-Nano, MOI 0.025, 48 h.
A short description of data set [2]: CC50 assay (cytopathology in HEp-2 cells). The note with it: human. The procedure:
The cytopathology of compounds in HEp-2 cells is determined in the following manner. HEp-2 cells are suspended in DMEM+GlutaMAX (supplemented with 10% FBS and 1% Penicillin/Streptomycin) and seeded into 96 well plates (3×10^3/well). After a 4-hour incubation at 37° C.+5% CO2, three-fold serial dilutions of compounds are added to each well using an HP D300e digital dispenser. The cells are then incubated for 4 days at 37° C. and 5% CO2. The final volume in each well is 200 μL. Untreated wells are included as controls for 100% cell viability, while compounds treated with 5 uM puromycin are included as controls for 0% viability. Following the incubation, 100 μL of culture supernatant is removed from each well and replaced with 100 μL of CellTiter-Glo reagent (Promega, Madison, WI, Cat #G7573). The plates are then rocked for 2 minutes followed by a 10-minute incubation at 25° C. Compound-induced cytopathic effect is then assessed by measuring luminescence signal using and Envision plate reader. Values are normalized to the untreated DMSO and puromycin-treated controls (as 100% and 0% viability, respectively) and data is fit using non-linear regression analysis using XLfit4. The CC50 value for each compound is then determined as the concentration reducing cell viability by 50%.

[3] abbreviates: HEp-2, 96 h, read-out: EC50-RSV-HEP-2-96, HEp-2 cells, RSV A2, MOI=4, 4 days, 96 well, Table 2.
Where [4] appears, read: HEp-2 cells, 4 days, CellTiter-Glo, Table 2, read-out: RSV CC50.
[5] abbreviates: HEp-2, 96 h, read-out: EC50-RSV-HEP-2-96, HEp-2 cells, RSV A2, MOI=4, 4 days, 96 well, CellTiter-Glo, Table 1.
The mark [6] stands for this setting: HEp-2 cells, 4 days, CellTiter-Glo, Table 1, read-out: RSV CC50.

A word on the pEC50: it is −log10 of the EC50, conventionally taken in molar units. For orientation: CC50 means the concentration that lowers cell viability or growth by half. Take `CCC(CC)COC(=O)[C@H](C)N[P@](=O)(OC[C@H]1O[C@@](C#N)(c2ccc3c(N)ncnn23)[C@H](O)[C@@H]1O)Oc1ccccc1`: the pEC50 in data set [1] (96 h, HEp-2 cells, RSV A2, MOI=4, 4 days, 96 well, Table 2, read-out: EC50-RSV-HEP-2-96) was 7.83; with SARS-CoV-2 (Table 2, read-out: SARS-CoV-2 EC50), 6.96. This molecule had a cytotoxic concentration (CC50) at 4 days in data set [2] of 6080 nM.
For `COC(=O)[C@H](C)N[P@](=O)(OC[C@H]1O[C@@](C#N)(c2ccc3c(N)ncnn23)[C@H](O)[C@@H]1O)Oc1ccccc1`, in data set [1] (setting [3]), the pEC50 is 6.84. Besides, in data set [2] (setting [4]), the half-maximal cytotoxic concentration (CC50) at 4 days was found to be 48500 nM.
Consider `CC(C)OC(=O)[C@H](C)N[P@](=O)(OC[C@H]1O[C@@](C#N)(c2ccc3c(N)ncnn23)[C@H](O)[C@@H]1O)Oc1ccccc1`, for which the pEC50 in data set [1] (setting [3]) is 6.44. Also, in data set [2] (setting [4]), the cytotoxic concentration (CC50) at 4 days is above 9600 nM.
Take `CCOC(=O)[C@H](C)NP(=O)(OC[C@H]1O[C@@](C#N)(c2ccc3c(N)ncnn23)[C@H](O)[C@@H]1O)Oc1ccccc1` (stereo partly drawn): the pEC50 in data set [1] (setting [3]) was 6.53. In data set [2] (setting [4]), the cytotoxic concentration (CC50) at 4 days is above 70000 nM.
On to `C[C@H](NP(=O)(OC[C@H]1O[C@@](C#N)(c2ccc3c(N)ncnn23)[C@H](O)[C@@H]1O)Oc1ccccc1)C(=O)OC1CCC1` (stereo partly drawn), for which, in data set [1] (setting [3]), the negative-log EC50 (pEC50) is 7.12. Also, the CC50 at 4 days in data set [2] (setting [4]) amounted to 34200 nM.
For the molecule `COC(=O)[C@H](C)N[P@](=O)(OC[C@H]1O[C@@](C#N)(c2ccc3c(N)ncnn23)[C@H](OC(=O)C(C)C)[C@@H]1OC(=O)C(C)C)Oc1ccccc1` [Example 4, (2R,3R,4R,5R)-2-(4-aminopyrrolo[2,1-f][1,2,4]triazin-7-yl)-2-cyano-5-((((S)—(((S)-1-methoxy-1-oxopropan-2-yl)amino)(phenoxy)phosphoryl)oxy)methyl)tetrahydrofuran-3,4-diyl bis(2-methylpropanoate)], the pEC50 in data set [1] (setting [5]) was 7.03. Further, in data set [2] (setting [6]), the 50% cytotoxic concentration (CC50) at 4 days was 5580 nM.
In the case of `CCC(=O)O[C@H]1[C@@H](OC(=O)CC)[C@](C#N)(c2ccc3c(N)ncnn23)O[C@@H]1CO[P@@](=O)(N[C@@H](C)C(=O)OC)Oc1ccccc1` [Example 5, (2R,3R,4R,5R)-2-(4-aminopyrrolo[2,1-f][1,2,4]triazin-7-yl)-2-cyano-5-((((S)—(((S)-1-methoxy-1-oxopropan-2-yl)amino)(phenoxy)phosphoryl)oxy)methyl) tetrahydrofuran-3,4-diyl Dipropionate], in data set [1] (setting [5]), the negative-log EC50 (pEC50) was 6.96. Besides, in data set [2] (setting [6]), the 50% cytotoxic concentration (CC50) at 4 days came out at 9540 nM.
On to `COC(=O)[C@H](C)N[P@](=O)(OC[C@H]1O[C@@](C#N)(c2ccc3c(N)ncnn23)[C@H](OC(C)=O)[C@@H]1OC(C)=O)Oc1ccccc1` [Example 6, (2R,3R,4R,5R)-2-(4-aminopyrrolo[2,1-f][1,2,4]triazin-7-yl)-2-cyano-5-((((S)—(((S)-1-methoxy-1-oxopropan-2-yl)amino)(phenoxy)phosphoryl)oxy)methyl) tetrahydrofuran-3,4-diyl Diacetate], for which the negative-log EC50 (pEC50) in data set [1] (setting [5]) was 6.72. Also, in data set [2] (setting [6]), the CC50 at 4 days was 26400 nM.
Regarding `CC(C)OC(=O)[C@H](C)N[P@](=O)(OC[C@H]1O[C@@](C#N)(c2ccc3c(N)ncnn23)[C@H](OC(=O)C(C)C)[C@@H]1OC(=O)C(C)C)Oc1ccccc1` [Example 7, (2R,3R,4R,5R)-2-(4-aminopyrrolo[2,1-f][1,2,4]triazin-7-yl)-2-cyano-5-((((S)—(((S)-1-isopropoxy-1-oxopropan-2-yl)amino)(phenoxy)phosphoryl)oxy)methyl) tetrahydrofuran-3,4-diyl bis(2-methylpropanoate)], the pEC50 in data set [1] (setting [5]) was 7.11; in the data set with SARS-CoV-2 (Table 1, read-out: SARS-CoV-2 EC50), 6.62; in the data set on SARS-CoV-2 (Table 4, read-out: EC50 SARS CoV2) it was 6.43. Also, in data set [2] (setting [6]), the 50% cytotoxic concentration (CC50) at 4 days came out at 12600 nM.
As for `CCC(=O)O[C@H]1[C@@H](OC(=O)CC)[C@](C#N)(c2ccc3c(N)ncnn23)O[C@@H]1CO[P@@](=O)(N[C@@H](C)C(=O)OC(C)C)Oc1ccccc1` [Example 8, (2R,3R,4R,5R)-2-(4-aminopyrrolo[2,1-f][1,2,4]triazin-7-yl)-2-cyano-5-((((S)—(((S)-1-isopropoxy-1-oxopropan-2-yl)amino)(phenoxy)phosphoryl)oxy)methyl) tetrahydrofuran-3,4-diyl Dipropionate], the pEC50 in data set [1] (setting [5]) was 6.81. Moreover, the cytotoxic concentration (CC50) at 4 days in data set [2] (setting [6]) is above 40000 nM.
For `CC(=O)O[C@H]1[C@@H](OC(C)=O)[C@](C#N)(c2ccc3c(N)ncnn23)O[C@@H]1CO[P@@](=O)(N[C@@H](C)C(=O)OC(C)C)Oc1ccccc1` [Example 9, (2R,3R,4R,5R)-2-(4-aminopyrrolo[2,1-f][1,2,4]triazin-7-yl)-2-cyano-5-((((S)—(((S)-1-isopropoxy-1-oxopropan-2-yl)amino)(phenoxy)phosphoryl)oxy)methyl) tetrahydrofuran-3,4-diyl Diacetate], the negative logarithm of the EC50 (pEC50) in data set [1] (setting [5]) is 6.64. Besides, the CC50 at 4 days in data set [2] (setting [6]) is above 50000 nM.
In the case of `CCOC(=O)[C@H](C)N[P@](=O)(OC[C@H]1O[C@@](C#N)(c2ccc3c(N)ncnn23)[C@H](OC(=O)C(C)C)[C@@H]1OC(=O)C(C)C)Oc1ccccc1` [Example 10, (2R,3R,4R,5R)-2-(4-aminopyrrolo[2,1-f][1,2,4]triazin-7-yl)-2-cyano-5-((((((S)-1-ethoxy-1-oxopropan-2-yl)amino)(phenoxy)phosphoryl)oxy)methyl)tetrahydrofuran-3,4-diyl bis(2-methylpropanoate)], the negative logarithm of the EC50 (pEC50) in data set [1] (setting [5]) is 7.28. For the same molecule, the half-maximal cytotoxic concentration (CC50) at 4 days in data set [2] (setting [6]) is 10300 nM.
As for `CCC(CC)COC(=O)[C@H](C)NP(=O)(OC[C@H]1O[C@@](C#N)(c2ccc3c(N)ncnn23)[C@H](O)[C@@H]1O)Oc1c(C)cccc1C` (stereo partly drawn) [Example 19, 2-Ethylbutyl ((((2R,3S,4R,5R)-5-(4-aminopyrrolo[2,1-f][1,2,4]triazin-7-yl)-5-cyano-3,4-dihydroxytetrahydrofuran-2-yl)methoxy)(2,6-dimethylphenoxy)phosphoryl)-L-alaninate], the negative-log EC50 (pEC50) in data set [1] (setting [5]) was 6.16. Besides, the CC50 at 4 days in data set [2] (setting [6]) amounted to 26500 nM.
For `CCC(CC)COC(=O)[C@H](C)NP(=O)(OC[C@H]1O[C@@](C#N)(c2ccc3c(N)ncnn23)[C@H](OC(=O)C(C)C)[C@@H]1OC(=O)C(C)C)Oc1c(C)cccc1C` (stereo partly drawn) [Example 20, (2R,3R,4R,5R)-2-(4-aminopyrrolo[2,1-f][1,2,4]triazin-7-yl)-2-cyano-5-((((2,6-dimethylphenoxy)(((S)-1-(2-ethylbutoxy)-1-oxopropan-2-yl)amino)phosphoryl)oxy)methyl)tetrahydrofuran-3,4-diyl bis(2-methylpropanoate)], in that order: 6.35 and 5180 nM.
For the molecule `CCOCCOCCOC(=O)[C@H](C)NP(=O)(OC[C@H]1O[C@@](C#N)(c2ccc3c(N)ncnn23)[C@H](O)[C@@H]1O)Oc1ccccc1` (stereo partly drawn) [Example 22, 2-(2-Ethoxyethoxy)ethyl ((((2R,3S,4R,5R)-5-(4-aminopyrrolo[2,1-f][1,2,4]triazin-7-yl)-5-cyano-3,4-dihydroxytetrahydrofuran-2-yl)methoxy)(phenoxy)phosphoryl)-L-alaninate], the pEC50 in data set [1] (setting [5]) was below 5.33. Further, the 50% cytotoxic concentration (CC50) at 4 days in data set [2] (setting [6]) was above 50000 nM.
As for `CCOCCOCCOC(=O)[C@H](C)NP(=O)(OC[C@H]1O[C@@](C#N)(c2ccc3c(N)ncnn23)[C@H](OC(=O)C(C)C)[C@@H]1OC(=O)C(C)C)Oc1ccccc1` (stereo partly drawn) [Example 23, (2R,3R,4R,5R)-2-(4-Aminopyrrolo[2,1-f][1,2,4]triazin-7-yl)-2-cyano-5-((((((S)-1-(2-(2-ethoxyethoxy)ethoxy)-1-oxopropan-2-yl)amino)(phenoxy)phosphoryl)oxy)methyl)tetrahydrofuran-3,4-diyl bis(2-methylpropanoate)], the pEC50 in data set [1] (setting [5]) was 7.12. The half-maximal cytotoxic concentration (CC50) at 4 days in data set [2] (setting [6]) came out at 5640 nM.
Take `COC(C)(C)COC(=O)[C@H](C)NP(=O)(OC[C@H]1O[C@@](C#N)(c2ccc3c(N)ncnn23)[C@H](O)[C@@H]1O)Oc1ccccc1` (stereo partly drawn) [Example 24, 2-Methoxy-2-methylpropyl ((((2R,3S,4R,5R)-5-(4-aminopyrrolo[2,1-f][1,2,4]triazin-7-yl)-5-cyano-3,4-dihydroxytetrahydrofuran-2-yl)methoxy)(phenoxy)phosphoryl)-L-alaninate]: in data set [1] (setting [5]), the pEC50 was 5.83. Also, the CC50 at 4 days in data set [2] (setting [6]) was above 50000 nM.
As for `CCC(CC)COC(=O)[C@H](C)NP(=O)(OC[C@H]1O[C@@](C#N)(c2ccc3c(N)ncnn23)[C@H](OC(=O)C(C)C)[C@@H]1OC(=O)C(C)C)Oc1cc(C)ccc1C(C)C` (stereo partly drawn) [Example 27, (2R,3R,4R,5R)-2-(4-Aminopyrrolo[2,1-f][1,2,4]triazin-7-yl)-2-cyano-5-((((((S)-1-(2-ethylbutoxy)-1-oxopropan-2-yl)amino)(2-isopropyl-5-methylphenoxy)phosphoryl)oxy)methyl)tetrahydrofuran-3,4-diyl bis(2-methylpropanoate)], in data set [1] (setting [5]), the pEC50 is 6.02. In addition, in data set [2] (setting [6]), the CC50 at 4 days was found to be 5860 nM.
